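How tested: cells in 96-well plates exposed to compound for 48 hours at five concentrations. Abbreviation: GI50, concentration required for 50% inhibition of growth. The concentration for full growth arrest is given as TGI.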

Holding throughout (test): inhibition of tumour cell growth, NCI panel, 48 h
Test [1] concerns MDA-MB-231 breast.
Test [2] has as its system NCI-H522 lung.
Test [3] deals with A498 renal.
The subject of test [4] is U251 CNS.
In test [5] the test system is DU-145 prostate.
Test [6] has as its system HS 578T breast.
Test [7] deals with MOLT-4 leukemia.
Test [8] concerns LOX IMVI melanoma.

Consider `CC1(C)Oc2ccc3c(=O)cc(-c4ccccc4)oc3c2C1C(=O)O` (stereo not drawn), for which the TGI in test [1], in test [2], in test [3], in test [4], in test [5] and in test [6] was above 100 µM each time. Moreover, the TGI in test [7] was above 100 µM.
Consider `COC(NC(=O)Nc1ccccc1C)(C(F)(F)F)C(F)(F)F`, for which the TGI in test [2], in test [3], in test [4], in test [8], in test [5] and in test [6] was above 100 µM throughout. This compound had a TGI in test [7] above 100 µM.
Regarding `COc1ccccc1NC(=O)CC(=O)NN`, the TGI in test [1], in test [2], in test [3], in test [4], in test [8] and in test [5] was above 100 µM each time. Besides, the TGI in test [6] and in test [7] was above 100 µM in each case.
On to `O=C(OCc1ccccc1)N1CCNCCNCCN(C(=O)OCc2ccccc2)CCNCC1`, for which the TGI is 65.1 µM in test [1]; 31.4 µM in test [2]; 70.1 µM in test [3]; 33.7 µM in test [4]; 30.8 µM in test [8]; above 100 µM in test [5]. Also, the figures for the TGI in test [6] and in test [7] were 44 µM and 38.9 µM, respectively.
On to `Cc1c2cccc-2ccc2c3ccccc3n(C(=O)c3ccc(Cl)cc3)c12`, for which the TGI in test [1], in test [2], in test [3], in test [4], in test [8] and in test [5] was above 100 µM in each case. In addition, the TGI in test [6] and in test [7] was above 100 µM throughout.
For `Clc1ccc(C2=CCN3CC=C(c4ccc(Cl)cc4)C23)cc1`, the TGI in test [1] was 25 µM; in test [2], 22.8 µM; in test [4], 23.7 µM; in test [8], 20.6 µM; in test [5], 29.2 µM; in test [6] it was 30.3 µM. In test [7], the TGI turned out to be 28 µM.
As to `CCOC(=O)CCC(C(=O)OCC)n1nnc2cc(Nc3c(C)[n+]([O-])c4cc(F)c(OCC)cc4[n+]3[O-])ccc21` (stereo not drawn), the TGI in test [2], in test [3], in test [4], in test [8], in test [5] and in test [6] was above 100 µM in each case. Further, the TGI in test [7] was above 100 µM.
As to `O=C(c1ccc(Cl)cc1)N1CCN=C1c1cc2ccccc2c2ccccc12`, the TGI in test [1] was 29.9 µM; in test [3], 28.9 µM; in test [4], 30.5 µM; in test [8], 36.1 µM; in test [5], 38.4 µM; in test [6], 35.9 µM. This compound also returned a TGI in test [7] above 100 µM.
Regarding `CCCCCCCCOc1ccc(/C=C/C2=[N+](CCO)CCO2)cc1`, the TGI in test [1] turned out to be 11.4 µM; in test [2], 6.25 µM; in test [3] it was 11.7 µM; in test [4], 8.13 µM; in test [5] it was 16.4 µM; in test [6], 17.2 µM. Further, the TGI in test [7] amounted to 9.27 µM.
`CCNc1cc2c3c(c1)CCN3CCC2`: the TGI in test [1], in test [2], in test [3], in test [4], in test [8] and in test [5] was above 10 µM throughout. The TGI in test [6] and in test [7] was above 10 µM throughout.
With `O=C(O)/C=C\C(=O)Nn1c(Cc2ccc(Cl)cc2)n[nH]c1=O`, the TGI in test [1], in test [2], in test [3], in test [4], in test [5] and in test [6] was above 100 µM throughout. Also, the TGI in test [7] is above 100 µM.
For `Cc1ccccc1NC(=O)CC(=O)NNC(Sc1ccccc1)c1cc(N=Nc2ccc(Br)cc2)ccc1O` (stereo not drawn), the TGI in test [1] is 6.05 µM; in test [2], above 10 µM; in test [3], 7.96 µM; in test [4], above 10 µM; in test [8] it was 9.11 µM; in test [5] it was above 10 µM. Further, the values for the TGI in test [6] and in test [7] were above 10 µM and 3.1 µM, respectively.
Regarding `Cc1ccc(S(=O)(=O)NC(=O)C2=C3SCCN3C(=O)N(S(=O)(=O)c3ccc(C)cc3)C2c2ccccc2)cc1` (stereo not drawn), the TGI in test [1] was above 100 µM; in test [2], 46.7 µM; in test [3] it was above 100 µM; in test [4], above 100 µM; in test [8], above 100 µM; in test [5] it was above 100 µM. Also, the TGI in test [6] and in test [7] was above 100 µM throughout.
Turning to `Cc1cc(S(=O)(=O)/N=C(/NN)Nc2ccc(Cl)cc2)c(S)cc1Cl`, the TGI in test [1] is 84.2 µM; in test [2], 42.9 µM; in test [3], 35.4 µM; in test [4], 21.7 µM; in test [8], 30.5 µM; in test [5], 17.2 µM. For the same compound, the TGI in test [6] came to 11.3 µM; in test [7] it was 58.9 µM.
Consider `COc1ccccc1C1C(C#N)=C(N)Oc2n[nH]c(C)c21` (stereo not drawn), for which the GI50 in test [1] is 15.1 µM; in test [2], 56.3 µM; in test [3] it was above 100 µM; in test [4], 92.9 µM; in test [8] it was above 100 µM; in test [5], above 100 µM. Also, the GI50 in test [6] was 27.8 µM; in test [7] it was above 100 µM. The TGI in test [1], in test [2], in test [3], in test [4], in test [8] and in test [5] was above 100 µM throughout. For the same compound, the TGI in test [6] and in test [7] was above 100 µM each time.
For `Clc1cc(Cl)ncn1`, the TGI in test [1], in test [2], in test [4], in test [8], in test [5] and in test [6] was above 100 µM each time. The compound further returned a TGI in test [7] above 100 µM.

The values are drawn from PubChem BioAssay (NCI).
